# Laboratory results as given in US5486511A, “4-amino-17β-(cyclopropyloxy)androst-4-en-3-one, 4-amino-17β-(cyclopropylamino)androst-4-en-3-one and related compounds as C17-20 lyase and 5α-reductase” (Merrell Dow Pharmaceuticals Inc., priority 1994, dated 1996).
# Test system: human prostatic tumor xenographs (PC-82)
# Assay: Inhibition of human prostatic tumor growth (PC-82 xenografts in athymic mice)
# Type: in vivo
# Method: In this model, human prostatic tumor xenographs (PC-82) are grown in athymic mice. The tumors are serially transplantable, androgen-responsive, slow-growing (i.e. 20-30 days for tumor volume to double) and are moderately differentiated human prostatic adenocarcinoma. These tumors will regress following androgen ablation with a half-life of 18 days (van Weerden, W. M. et al., Prostate 23:149-164 (1993).
# The above tumor model of androgen-dependent human prostatic cancer was utilized to evaluate 4-amino-17β-(cyclopropyloxy)androst-4-en-3-one for inhibition of prostatic tumor growth following daily oral treatment at 30 and 100 mg/kg/day (See Table 2). Two control groups were tested, including one which received only the delivery vehicle and another which were bilaterally castrated. Tumor volumes were measured three times per week using a digital caliper using the formula: V (mm^3)=d1 ×(d2)^2 /2 were d1 is the length and d2 the width. The relative percent change in tumor volume is based on the mean tumor volume of the vehicle control groups at week 0 being set equal to 100%.
compound,measurement,setting,value
"C[C@]12CC[C@H]3[C@@H](CCC4=C(N)C(=O)CC[C@@]43C)[C@@H]1CC[C@@H]2OC1CC1 [Compound 2, 4-Amino-17β-(cyclopropyloxy)androst-4-en-3-one]",Relative percent tumor volume compared to vehicle control at beginning of timed period,"30 mg/kg/day oral, 0 weeks",105%
same,Tumor volume,"30 mg/kg/day oral, 0 weeks",541 ± 71 mm^3
same,Relative percent tumor volume compared to vehicle control at beginning of timed period,"30 mg/kg/day oral, +2 weeks",150%
same,Tumor volume,"30 mg/kg/day oral, +2 weeks",771 ± 108 mm^3
same,Relative percent tumor volume compared to vehicle control at beginning of timed period,"30 mg/kg/day oral, +4 weeks",253%
same,Tumor volume,"30 mg/kg/day oral, +4 weeks",1305 ± 309 mm^3
same,Relative percent tumor volume compared to vehicle control at beginning of timed period,"100 mg/kg/day oral, 0 weeks",83%
same,Tumor volume,"100 mg/kg/day oral, 0 weeks",426 ± 49 mm^3
same,Relative percent tumor volume compared to vehicle control at beginning of timed period,"100 mg/kg/day oral, +2 weeks",117%
same,Tumor volume,"100 mg/kg/day oral, +2 weeks",601 ± 66 mm^3
same,Relative percent tumor volume compared to vehicle control at beginning of timed period,"100 mg/kg/day oral, +4 weeks",163%
same,Tumor volume,"100 mg/kg/day oral, +4 weeks",840 ± 86 mm^3
same,Inhibition of human prostatic tumor growth (in words),daily oral treatment,prolonged inhibition of human prostatic tumor growth
